Assay: xn = mol fraction of the nth substance listed
Conditions: 102 kPa, Liquid; for speed of sound: Frequency=3 MHz, Single path-length method; for mass density: Vibrating tube method; for viscosity: Concentric cylinders viscometry

CCCCCCCCCCCCC1CCCCC1 [dodecylcyclohexane] + CCCCCCCCCCCC
Conditions | mass density, 288.15 K [kg/m3] | mass density, 293.15 K [kg/m3] | speed of sound, 288.15 K [m/s] | speed of sound, 293.15 K [m/s] | viscosity, 293.15 K [mPa·s]
x1 = 0.1005 | 762.18 | 758.6 | 1333.2 | 1313.7 | 1.82
x1 = 0.2001 | 771.24 | 767.69 | 1348 | 1328.7 | 2.14
x1 = 0.298 | 779.52 | 776 | 1361.9 | 1342.6 | 2.53
x1 = 0.4031 | 787.8 | 784.32 | 1375.7 | 1356.6 | 3.03
x1 = 0.5001 | 794.95 | 791.49 | 1387.9 | 1368.9 | 3.55
x1 = 0.6005 | 801.89 | 798.47 | 1400 | 1381 | 4.17
x1 = 0.7003 | 808.42 | 805.01 | 1411.3 | 1392.4 | 4.9
x1 = 0.7997 | 814.5 | – | 1421.8 | 1403.1 | 5.73
x1 = 0.8994 | 820.23 | – | 1432.1 | 1413.3 | 6.68
x1 = 1 | 825.71 | – | 1441.5 | 1422.9 | 7.76
